This passage reports EC50 results from BindingDB's records for doi:10.7270/Q2VX0F3D (Burnham Center For Chemical Genomics, 2012).

In this experiment the target is T1, Corticotropin-releasing factor-binding protein (Homo sapiens, UniProt P24387).
T1 sequence (P24387 whole entry): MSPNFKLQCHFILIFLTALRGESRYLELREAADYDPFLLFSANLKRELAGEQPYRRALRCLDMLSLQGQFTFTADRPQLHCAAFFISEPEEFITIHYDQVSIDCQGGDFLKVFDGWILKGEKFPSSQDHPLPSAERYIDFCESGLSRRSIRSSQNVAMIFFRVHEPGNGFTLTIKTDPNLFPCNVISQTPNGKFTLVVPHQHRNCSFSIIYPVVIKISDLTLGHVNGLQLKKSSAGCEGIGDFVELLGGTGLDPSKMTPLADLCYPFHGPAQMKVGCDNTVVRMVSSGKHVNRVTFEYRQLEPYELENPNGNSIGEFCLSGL
The experiment is described as follows: activators of CRF receptor 2 with binding protein – uHTS hits, confirmation (AID 602473).

pEC50: −log10 of the molar value. Bounds are passed on as bounds.

The pEC50 is the EC50 on a negative log10 scale, so that one unit is a factor of ten. Read a low pEC50 as a large EC50. For the compound `CN(CCOc1ccc(Cc2sc(=O)[nH]c2O)cc1)c1ccccn1`, the pEC50 was less than 4.28.
Turning to `Cc1c(N=C2C(=O)N(c3ccccc3Cl)C(=O)C2Cl)c(=O)n(-c2ccccc2)n1C` (centres undefined), the pEC50 was less than 4.28.
With `Cc1cc2c(cc1C)NC(c1c(C)n(C)n(-c3ccccc3)c1=O)C1C(=O)CC(C)(C)CC1=N2` (centres undefined) the figure was less than 4.28.
The compound `N#CC1C(=N)OC2=C(C(=O)CC(c3ccccc3)C2)C1c1ccc2c(c1)OCO2` (centres undefined) showed a pEC50 of less than 4.28.
With `Clc1ccc(C2=Nc3ncnn3C(c3ccco3)C2)cc1` (centres undefined) the figure was 5.08.
The same measure for `COc1cccc(C(=O)Cc2nc3ccc(C(=O)NCCc4ccc(Cl)cc4)cc3[nH]c2=O)c1`: 5.30; for `Cc1ccc(-n2c(O)c3n(-c4ccccc4)[nH]c(C(=O)c4ccccc4)c-3c2=O)cc1`: 4.65; for `COc1ccccc1-n1c(O)c2n(-c3ccc(C)cc3)[nH]c(C(=O)c3ccccc3)c-2c1=O`: 5.28.
Turning to `N#CC(C(=O)COc1ccc(Cl)cc1)c1nc2ccccc2s1` (centres undefined), the pEC50 was less than 4.28.
The same measure for `CCOc1ccc(C2CC(c3ccc(C)cc3)=Nc3nnnn32)cc1` (centres undefined): less than 4.28; for `Cc1ccccc1COc1ccc(C(=O)C2C(=O)C(=O)N(CCCn3ccnc3)C2c2ccco2)cc1` (centres undefined): less than 4.28.
With `COc1cc(C2c3c(-c4ccccn4)n[nH]c3OC(=N)C2C#N)cc(OC)c1OC` (centres undefined) the figure was less than 4.28; with `O=C(Cc1sc(N=NC=CCc2ccccc2)nc1O)Nc1ccc(Cl)c(Cl)c1`, less than 4.28; with `CN1C(=O)C(=CCC=Nc2ccccc2)C(=O)N(C)C1=O`, less than 4.28.
The compound `CC1(C)CC(=O)C2CNc3ccccc3N=C2C1` (centres undefined) showed a negative logarithm of the EC50 (pEC50) of less than 4.28.
With `COC(=O)C1=C(C)NC(=O)C1=CNc1ccc(Oc2ccccc2)cc1` the figure was less than 4.28.
With `O=C(O)c1ccc(CN=Nc2cccc(C(F)(F)F)c2)cc1` the figure was less than 4.28; with `CCOc1ccc(C2=Nc3ncnn3C(c3ccccc3)C2)cc1` (centres undefined), less than 4.28.
As to `COc1cc2c(cc1OC)C(CC(=O)c1ccc(OC)c([N+](=O)[O-])c1)=NCC2`, the pEC50 was less than 4.28.
As to `COc1ccc(-n2c(O)cc(-c3ccc([N+](=O)[O-])cc3)c2O)cc1`, the negative-log EC50 (pEC50) is less than 4.28.
The same measure for `Cc1ccc(-n2c(O)cc(=O)[nH]c2=O)c(C)c1`: less than 4.28; for `CCCCCCC1=Cc2c/c(=C(/N)NNC(=O)c3ccncc3)c(=O)oc2=CC1=O`: 5.95.
For the compound `Cc1ccc2nc(N3C(=O)C(=O)C(C(=O)c4ccco4)C3c3cccc(O)c3)sc2c1` (centres undefined), the pEC50 is less than 4.28.
As to `COc1cc(/C=C2\CCC(C)C3=C(c4cc(OC)c(OC)c(OC)c4)C(C#N)C(=N)OC32)cc(OC)c1OC` (centres undefined), the pEC50 was less than 4.28.
`CC1=CC(C)(C(Cl)(Cl)Cl)C(C)C=C1N=O` (centres undefined) showed a pEC50 of less than 4.28.
With `CCNC(=S)N(CCc1ccc(S(N)(=O)=O)cc1)c1cc(O)n(-c2ccccc2)c1O` [1-(2,5-dioxo-1-phenyl-3-pyrrolidinyl)-3-ethyl-1-[2-(4-sulfamoylphenyl)ethyl]thiourea] the figure was 4.73.
The same measure for `Cc1ccc(C2CC(c3ccccc3)=Nc3nc(-n4c(O)ccc4O)nn32)cc1` (centres undefined) [1-[7-(4-methylphenyl)-5-phenyl-1,7-dihydro-[1,2,4]triazolo[1,5-a]pyrimidin-2-yl]pyrrolidine-2,5-dione]: less than 4.28; for `CCOc1ccc(C2C(C#N)=C3Sc4ccccc4N3C(=N)C2C#N)cc1` (centres undefined) [1-amino-3-(4-ethoxyphenyl)-3H-pyrido[2,1-b][1,3]benzothiazole-2,4-dicarbonitrile]: 5.09; for `Oc1ccc(CN=Nc2nc(N3CCCCCC3)nc(N3CCCCCC3)n2)c(O)c1` [2,4-dihydroxybenzaldehyde (4,6-diazepan-1-yl-1,3,5-triazin-2-yl)hydrazone]: less than 4.28.
Turning to `COc1cc(C2C(C(=O)c3ccco3)C(=O)C(=O)N2c2cc(C)on2)cc(Br)c1O` (centres undefined) [2-(3-bromanyl-5-methoxy-4-oxidanyl-phenyl)-3-(furan-2-ylcarbonyl)-1-(5-methyl-1,2-oxazol-3-yl)-4-oxidanyl-2H-pyrrol-5-one], the pEC50 was less than 4.28.
The compound `C=C1C(c2ccc(Cl)cc2)=[N+](O)C(c2ccccc2)=CN1[O-]` [2-(4-chlorophenyl)-3-methyl-4-oxido-6-phenylpyrazin-1-ium 1-oxide] had a pEC50 of less than 4.28.
The same measure for `N#Cc1cc2ccccc2nc1SCc1cccnc1` [2-(Pyridin-3-ylmethylsulfanyl)-quinoline-3-carbonitrile]: less than 4.28; for `CCCCCCc1cc2cc(C(=O)NCc3ccccc3)c(N)oc-2cc1=O` [2-amino-6-hexyl-7-oxo-N-(phenylmethyl)-1-benzopyran-3-carboxamide]: 5.38; for `COc1ccc(C2c3ccc(O)cc3OC(=N)C2C#N)cc1C` (centres undefined) [2-amino-7-hydroxy-4-(4-methoxy-3-methylphenyl)-4H-1-benzopyran-3-carbonitrile]: less than 4.28.
With `CCCCCCc1cc2cc(C(=O)NC)c(N)oc-2cc1=O` [2-azanyl-6-hexyl-N-methyl-7-oxidanylidene-chromene-3-carboxamide] the figure was 5.51; with `CCCC1=Nc2nc(C)nn2C(c2cccnc2)C1C(=O)OCC` (centres undefined) [2-methyl-5-propyl-7-(3-pyridinyl)-1,7-dihydro-[1,2,4]triazolo[1,5-a]pyrimidine-6-carboxylic acid ethyl ester], less than 4.28; with `Oc1nc(N=NCc2ccc(F)cc2)sc1-c1ccccc1` [2-{N'-[1-(4-Fluoro-phenyl)-meth-(E)-ylidene]-hydrazino}-5-phenyl-thiazol-4-one], less than 4.28.
The same measure for `CC1C2=C(CC(C)(C)CC2=O)N=C2CC(C)(C)CC(=O)C21` (centres undefined) [3,3,6,6,9-pentamethyl-2,4,5,7,9,10-hexahydroacridine-1,8-dione]: less than 4.28; for `COc1ccccc1C1C(C(=O)c2sc(C)nc2C)C(=O)C(=O)N1CCN1CCOCC1` (centres undefined) [3-(2,4-dimethyl-1,3-thiazole-5-carbonyl)-4-hydroxy-2-(2-methoxyphenyl)-1-(2-morpholin-4-ylethyl)-2H-pyrrol-5-one]: less than 4.28.
In the case of `C=CCOc1ccc(C2C(C(=O)c3ccco3)C(=O)C(=O)N2c2nnc(C)s2)cc1` (centres undefined) [3-(furan-2-carbonyl)-4-hydroxy-1-(5-methyl-1,3,4-thiadiazol-2-yl)-2-(4-prop-2-enoxyphenyl)-2H-pyrrol-5-one], the pEC50 was less than 4.28.
`Cc1cccc(N2C(=O)C(=O)C(C(=O)c3cccs3)C2c2ccc(C(C)C)cc2)n1` (centres undefined) [3-Hydroxy-5-(4-isopropyl-phenyl)-1-(6-methyl-pyridin-2-yl)-4-(thiophene-2-carbonyl)-1,5-dihydro-pyrrol-2-one] had a pEC50 of 4.95.
The same measure for `O=C(Cc1nc2ccccc2n(-c2ccccc2)c1=O)c1ccc(F)cc1` [3-[2-(4-fluorophenyl)-2-oxoethylidene]-1-phenyl-3,4-dihydro-2(1H)-quinoxalinone]: 5.14; for `O=c1c(CN=Nc2ccccc2)c(Sc2nnnn2-c2ccccc2)nc2ccccn12` [3-[(phenylhydrazinylidene)methyl]-2-(1-phenyltetrazol-5-yl)sulfanylpyrido[1,2-a]pyrimidin-4-one]: 5.00.
With `O=C(c1ccccc1)c1[nH]n(-c2ccccc2)c2c(O)n(-c3ccccc3)c(=O)c1-2` [3-benzoyl-1,5-diphenyl-3a,6a-dihydropyrrolo[3,4-c]pyrazole-4,6-dione] the figure was 4.84; with `CC(=O)C1C(=O)C(=O)N(Cc2ccccc2)C1c1ccc(F)cc1` (centres undefined) [3-ethanoyl-2-(4-fluorophenyl)-4-oxidanyl-1-(phenylmethyl)-2H-pyrrol-5-one], less than 4.28; with `Cc1cc(=O)oc2c1ccc1oc(C(N=O)c3ccccc3)c(C)c12` (centres undefined) [4,9-dimethyl-8-(N-oxidanyl-C-phenyl-carbonimidoyl)furo[2,3-h]chromen-2-one], less than 4.28.
`CSCSC1=NC(C)=C(C(C)=O)C(c2ccccc2Cl)C1C#N` (centres undefined) [4-(2-chlorophenyl)-5-ethanoyl-6-methyl-2-(methylsulfanylmethylsulfanyl)-1,4-dihydropyridine-3-carbonitrile] had a negative logarithm of the EC50 (pEC50) of less than 4.28.
Take `CCOC(=O)C1C(CCc2ccccc2)=NC(=O)NC1c1cccc([N+](=O)[O-])c1` (centres undefined) [4-(3-nitrophenyl)-2-oxo-6-(2-phenylethyl)-3,4-dihydro-1H-pyrimidine-5-carboxylic acid ethyl ester]: the negative logarithm of the EC50 (pEC50) was less than 4.28.
The compound `COC(=O)c1ccc(C(=O)C(C#N)c2nc3ccccc3s2)cc1` (centres undefined) [4-[(2Z)-2-(3H-1,3-benzothiazol-2-ylidene)-2-cyano-1-oxoethyl]benzoic acid methyl ester] gave a pEC50 of less than 4.28.
In turn, `C=CCSc1nnc(C)c(CC=Nc2ccc(Cl)cc2)n1` [4-chloro-N-[(E)-2-(6-methyl-3-prop-2-enylsulfanyl-1,2,4-triazin-5-yl)ethenyl]aniline] gave a pEC50 of 5.32.
The same measure for `Cc1ccc2nc(N3C(=O)C(=O)C(C(=O)c4ccc(C)o4)C3c3cccc(O)c3)sc2c1` (centres undefined) [4-hydroxy-2-(3-hydroxyphenyl)-1-(6-methyl-1,3-benzothiazol-2-yl)-3-(5-methylfuran-2-carbonyl)-2H-pyrrol-5-one]: less than 4.28; for `CC1(C)CC(=O)C(C2C3=C(CC(C)(C)CC3=O)Oc3c(Br)cc(Br)cc32)C(=O)C1` (centres undefined) [5,7-bis(bromanyl)-9-(4,4-dimethyl-2-oxidanyl-6-oxidanylidene-cyclohexen-1-yl)-3,3-dimethyl-4,9-dihydro-2H-xanthen-1-one]: 4.99; for `O=C1CC(c2ccccc2)C(c2ccccc2)C1=O` (centres undefined) [5-oxidanyl-3,4-diphenyl-cyclopent-2-en-1-one]: less than 4.28.
As for `O=c1cc(Nc2cc(O)n(-c3ccccc3Cl)c2O)[nH]c(=O)[nH]1` [6-[[1-(2-chlorophenyl)-2,5-dioxopyrrolidin-3-yl]amino]-1H-pyrimidine-2,4-dione], the negative-log EC50 (pEC50) is less than 4.28.
